Measured values reported in PMC11277489, “Novel Piperazine Derivatives of Vindoline as Anticancer Agents” (International Journal of Molecular Sciences, 2024).

Experiments:
[1] = tested on: LOX IMVI; experiment: NCI60 one-dose screen (10 μM), Melanoma; format: cell-based, human; settings: Homo sapiens; 10 μM; LOX IMVI, Melanoma; read-out: Growth percent rate
[2] = tested on: HL-60(TB); experiment: NCI60 one-dose screen (10 μM), Leukemia; format: cell-based; settings: Homo sapiens; 10 μM; HL-60(TB), Leukemia; read-out: Growth percent rate
[3] = tested on: NCI-H522; experiment: NCI60 one-dose screen (10 μM), Non-small Cell Lung Cancer; format: cell-based; settings: Homo sapiens; 10 μM; NCI-H522, Non-small Cell Lung Cancer; read-out: Growth percent rate
[4] = tested on: OVCAR-8; experiment: NCI60 one-dose screen (10 μM), Ovarian Cancer; format: cell-based; settings: Homo sapiens; 10 μM; OVCAR-8, Ovarian Cancer; read-out: Growth percent rate
[5] = tested on: HOP-62; experiment: NCI60 one-dose screen (10 μM), Non-small Cell Lung Cancer; format: cell-based; settings: Homo sapiens; 10 μM; HOP-62, Non-small Cell Lung Cancer; read-out: Growth percent rate
[6] = tested on: UACC-257; experiment: NCI60 one-dose screen (10 μM), Melanoma; format: cell-based; settings: Homo sapiens; 10 μM; UACC-257, Melanoma; read-out: Growth percent rate
[7] = tested on: SK-MEL-5; experiment: NCI60 one-dose screen (10 μM), Melanoma; format: cell-based, human; settings: Homo sapiens; 10 μM; SK-MEL-5, Melanoma; read-out: Growth percent rate
[8] = tested on: SF-268; experiment: NCI60 one-dose screen (10 μM), CNS Cancer; format: cell-based; settings: Homo sapiens; 10 μM; SF-268, CNS Cancer; read-out: Growth percent rate
[9] = tested on: COLO 205; experiment: NCI60 one-dose screen (10 μM), Colon Cancer; format: cell-based, human; settings: Homo sapiens; 10 μM; COLO 205, Colon Cancer; read-out: Growth percent rate
[10] = tested on: 60 human tumor cell lines (NCI60); experiment: NCI60 one-dose screen (10 μM), whole panel; format: cell-based
[11] = tested on: HCT-15; experiment: NCI60 one-dose screen (10 μM), Colon Cancer; format: cell-based; settings: Homo sapiens; 10 μM; HCT-15, Colon Cancer; read-out: Growth percent rate
[12] = tested on: NCI-H322M; experiment: NCI60 one-dose screen (10 μM), Non-small Cell Lung Cancer; format: cell-based; settings: Homo sapiens, 10 μM, Non-small Cell Lung Cancer, read-out: Growth percent rate
[13] = tested on: MCF7; experiment: NCI60 one-dose screen (10 μM), Breast Cancer; format: cell-based; settings: Homo sapiens; 10 μM; MCF7, Breast Cancer; read-out: Growth percent rate
[14] = tested on: RXF 393; experiment: NCI60 one-dose screen (10 μM), Renal Cancer; format: cell-based, human; settings: Homo sapiens; 10 μM; RXF 393, Renal Cancer; read-out: Growth percent rate
[15] = tested on: SW-620; experiment: NCI60 one-dose screen (10 μM), Colon Cancer; format: cell-based; settings: Homo sapiens; 10 μM; SW-620, Colon Cancer; read-out: Growth percent rate
[16] = tested on: IGROV1; experiment: NCI60 one-dose screen (10 μM), Ovarian Cancer; format: cell-based; settings: Homo sapiens, IGROV-1; 10 μM; IGROV1, Ovarian Cancer; read-out: Growth percent rate
[17] = tested on: DU-145; experiment: NCI60 one-dose screen (10 μM), Prostate Cancer; format: cell-based; settings: Homo sapiens; 10 μM; DU-145, Prostate Cancer; read-out: Growth percent rate
[18] = tested on: U251; experiment: NCI60 one-dose screen (10 μM), CNS Cancer; format: cell-based; settings: Homo sapiens, U-251; 10 μM; U251, CNS Cancer; read-out: Growth percent rate
[19] = tested on: KM12; experiment: NCI60 one-dose screen (10 μM), Colon Cancer; format: cell-based, human; settings: Homo sapiens; 10 μM; KM12, Colon Cancer; read-out: Growth percent rate
[20] = tested on: HT29; experiment: NCI60 one-dose screen (10 μM), Colon Cancer; format: cell-based; settings: Homo sapiens, HT-29; 10 μM; HT29, Colon Cancer; read-out: Growth percent rate
[21] = tested on: MOLT-4; experiment: NCI60 one-dose screen (10 μM), Leukemia; format: cell-based, human; settings: Homo sapiens; 10 μM; MOLT-4, Leukemia; read-out: Growth percent rate
[22] = tested on: K-562; experiment: NCI60 one-dose screen (10 μM), Leukemia; format: cell-based; settings: Homo sapiens, K562; 10 μM; K-562, Leukemia; read-out: Growth percent rate
[23] = tested on: SNB-75; experiment: NCI60 one-dose screen (10 μM), CNS Cancer; format: cell-based, human; settings: Homo sapiens; 10 μM; SNB-75, CNS Cancer; read-out: Growth percent rate
[24] = tested on: ACHN; experiment: NCI60 one-dose screen (10 μM), Renal Cancer; format: cell-based; settings: Homo sapiens, 10 μM, Renal Cancer, read-out: Growth percent rate
[25] = tested on: HS 578T; experiment: NCI60 one-dose screen (10 μM), Breast Cancer; format: cell-based; settings: Homo sapiens; 10 μM; HS 578T, Breast Cancer; read-out: Growth percent rate
[26] = tested on: NCI-H460; experiment: NCI60 one-dose screen (10 μM), Non-small Cell Lung Cancer; format: cell-based; settings: Homo sapiens; 10 μM; NCI-H460, Non-small Cell Lung Cancer; read-out: Growth percent rate
[27] = tested on: SK-MEL-2; experiment: NCI60 one-dose screen (10 μM), Melanoma; format: cell-based; settings: Homo sapiens; 10 μM; SK-MEL-2, Melanoma; read-out: Growth percent rate
[28] = tested on: SF-295; experiment: NCI60 one-dose screen (10 μM), CNS Cancer; format: cell-based; settings: Homo sapiens; 10 μM; SF-295, CNS Cancer; read-out: Growth percent rate
[29] = tested on: CCRF-CEM; experiment: NCI60 one-dose screen (10 μM), Leukemia; format: cell-based; settings: Homo sapiens, 10 μM, Leukemia, read-out: Growth percent rate
[30] = tested on: TK-10; experiment: NCI60 one-dose screen (10 μM), Renal Cancer; format: cell-based; settings: Homo sapiens; 10 μM; TK-10, Renal Cancer; read-out: Growth percent rate
[31] = tested on: 786–0; experiment: NCI60 one-dose screen (10 μM), Renal Cancer; format: cell-based; settings: Homo sapiens; 10 μM; 786-0, Renal Cancer; read-out: Growth percent rate
[32] = tested on: SF-539; experiment: NCI60 one-dose screen (10 μM), CNS Cancer; format: cell-based, human; settings: Homo sapiens; 10 μM; SF-539, CNS Cancer; read-out: Growth percent rate
[33] = tested on: SK-MEL-28; experiment: NCI60 one-dose screen (10 μM), Melanoma; format: cell-based; settings: Homo sapiens; 10 μM; SK-MEL-28, Melanoma; read-out: Growth percent rate
[34] = tested on: M14; experiment: NCI60 one-dose screen (10 μM), Melanoma; format: cell-based; settings: Homo sapiens; 10 μM; M14, Melanoma; read-out: Growth percent rate
[35] = tested on: HCT-116; experiment: NCI60 one-dose screen (10 μM), Colon Cancer; format: cell-based; settings: Homo sapiens; 10 μM; HCT-116, Colon Cancer; read-out: Growth percent rate
[36] = tested on: A498; experiment: NCI60 one-dose screen (10 μM), Renal Cancer; format: cell-based; settings: Homo sapiens; 10 μM; A498, Renal Cancer; read-out: Growth percent rate
[37] = tested on: SN12C; experiment: NCI60 one-dose screen (10 μM), Renal Cancer; format: cell-based; settings: Homo sapiens, 10 μM, Renal Cancer, read-out: Growth percent rate
[38] = tested on: RPMI-8226; experiment: NCI60 one-dose screen (10 μM), Leukemia; format: cell-based; settings: Homo sapiens; 10 μM; RPMI-8226, Leukemia; read-out: Growth percent rate
[39] = tested on: MALME-3M; experiment: NCI60 one-dose screen (10 μM), Melanoma; format: cell-based; settings: Homo sapiens; 10 μM; MALME-3M, Melanoma; read-out: Growth percent rate
[40] = tested on: OVCAR-3; experiment: NCI60 one-dose screen (10 μM), Ovarian Cancer; format: cell-based; settings: Homo sapiens; 10 μM; OVCAR-3, Ovarian Cancer; read-out: Growth percent rate
[41] = tested on: SNB-19; experiment: NCI60 one-dose screen (10 μM), CNS Cancer; format: cell-based; settings: Homo sapiens; 10 μM; SNB-19, CNS Cancer; read-out: Growth percent rate
[42] = tested on: A549/ATCC; experiment: NCI60 one-dose screen (10 μM), Non-small Cell Lung Cancer; format: cell-based; settings: Homo sapiens; 10 μM; A549/ATCC, Non-small Cell Lung Cancer; read-out: Growth percent rate

Structure (SMILES): CCC12C=CCN3CCC4(c5cc(NC(=O)CCl)c(OC)cc5N(C)C4C(O)(C(=O)OC)C1OC(C)=O)C32 (stereo not shown) [Compound 12, 10-chloroacetamidovindoline]
- activity at 10 µM [1]: 11.5%
- activity at 10 µM [2]: 37.9%
- activity at 10 µM [3]: 8.28%
- activity at 10 µM [4]: 29.6%
- activity at 10 µM [5]: -57.6%
- activity at 10 µM [6]: -3.69%
- activity at 10 µM [7]: -17.6%
- activity at 10 µM [8]: -0.99%
- activity at 10 µM [9]: 87.2%
- antiproliferative effect (in words) ([10]; 10 μM one-dose, NCI60): moderate cytostatic activity
- activity at 10 µM ([10]; 10 μM, mean over 60 human cancer cell lines, read-out: Growth percent rate, Mean): 18.1%
- activity at 10 µM [11]: 50.1%
- activity at 10 µM [12]: 58.9%
- activity at 10 µM [13]: 2.74%
- activity at 10 µM [14]: -32.6%
- activity at 10 µM [15]: 64.5%
- activity at 10 µM [16]: 27.5%
- activity at 10 µM [17]: 43.9%
- activity at 10 µM [18]: -47.9%
- activity at 10 µM [19]: 41.5%
- activity at 10 µM [20]: 54.1%
- activity at 10 µM [21]: -26.9%
- activity at 10 µM [22]: 36.4%
- activity at 10 µM [23]: -8.81%
- activity at 10 µM [24]: 37.3%
- activity at 10 µM [25]: -16.8%
- activity at 10 µM [26]: 51%
- activity at 10 µM [27]: -69.6%
- activity at 10 µM [28]: 52.2%
- activity at 10 µM [29]: 12.6%
- activity at 10 µM [30]: 24.8%
- activity at 10 µM [31]: 21.3%
- activity at 10 µM [32]: 4.74%
- activity at 10 µM [33]: -0.03%
- activity at 10 µM [34]: 37%
- activity at 10 µM [35]: 41.2%
- activity at 10 µM [36]: 54.6%
- activity at 10 µM [37]: 11%
- activity at 10 µM [38]: -24.7%
- activity at 10 µM [39]: -14.1%
- activity at 10 µM [40]: -14.7%
- activity at 10 µM [41]: 23.1%
- activity at 10 µM [42]: 64%
